# Assay results: patent US5843889A, “Glycopeptide antibiotic derivatives” (Eli Lilly and Company, priority 1997, dated 1998)
# Assays:
# [1] = system: Entercoccus gallinarum 245; experiment: MIC, standard broth micro-dilution assay; assay type: cell-based
# Description: (§1) The formula I compounds have in vitro and in vivo activity against Gram-positive pathogenic bacteria. The MIC's were determined using a standard broth micro-dilution assay.
# [2] = system: Entercoccus faecalis 2041; experiment: MIC, standard broth micro-dilution assay; assay type: cell-based
# Description: as §1
smiles,measurement,setting,value
CCCCCCCCc1ccc(-c2ccc(CNC3(C)CC(OC4C(Oc5c6cc7cc5Oc5ccc(cc5Cl)C(OC5CC(C)(N)C(O)C(C)O5)C5NC(=O)C(NC(=O)C7NC(=O)C(CC(N)=O)NC(=O)C(NC(=O)C(CC(C)C)NC)C(O)c7ccc(c(Cl)c7)O6)c6ccc(O)c(c6)-c6c(O)cc(O)cc6C(C(=O)O)NC5=O)OC(CO)C(O)C4O)OC(C)C3O)cc2)cc1 (centres unmarked) [Compound 21],MIC,[1],8 µg/mL
"CNC(CC(C)C)C(=O)NC1C(=O)NC(CC(N)=O)C(=O)NC2C(=O)NC3C(=O)NC(C(=O)NC(C(=O)O)c4cc(O)cc(O)c4-c4cc3ccc4O)C(OC3CC(C)(N)C(O)C(C)O3)c3ccc(c(Cl)c3)Oc3cc2cc(c3OC2OC(CO)C(O)C(O)C2OC2CC(C)(NCc3cncc(-c4ccccc4)c3)C(O)C(C)O2)Oc2ccc(cc2Cl)C1O (centres unmarked) [Compound 101, 3-[5-phenyl]pyridinylmethyl]",MIC,[1],8 µg/mL
same,MIC,[2],≤ 0.06 µg/mL
"CCCCCC1CCC(c2ccc(CNC3(C)CC(OC4C(Oc5c6cc7cc5Oc5ccc(cc5Cl)C(OC5CC(C)(N)C(O)C(C)O5)C5NC(=O)C(NC(=O)C7NC(=O)C(CC(N)=O)NC(=O)C(NC(=O)C(CC(C)C)NC)C(O)c7ccc(c(Cl)c7)O6)c6ccc(O)c(c6)-c6c(O)cc(O)cc6C(C(=O)O)NC5=O)OC(CO)C(O)C4O)OC(C)C3O)cc2)CC1 (centres unmarked) [Compound 34, 4-[4-pentylcyclohexyl]benzyl]",MIC,[1],4 µg/mL
same,MIC,[2],8 µg/mL
"CNC(CC(C)C)C(=O)NC1C(=O)NC(CC(N)=O)C(=O)NC2C(=O)NC3C(=O)NC(C(=O)NC(C(=O)O)c4cc(O)cc(O)c4-c4cc3ccc4O)C(OC3CC(C)(N)C(O)C(C)O3)c3ccc(c(Cl)c3)Oc3cc2cc(c3OC2OC(CO)C(O)C(O)C2OC2CC(C)(NCCCC3CCCC3)C(O)C(C)O2)Oc2ccc(cc2Cl)C1O (centres unmarked) [Compound 208, 3-[cyclopentyl]propyl]",MIC,[1],2 µg/mL
same,MIC,[2],≤ 0.06 µg/mL
"CNC(CC(C)C)C(=O)NC1C(=O)NC(CC(N)=O)C(=O)NC2C(=O)NC3C(=O)NC(C(=O)NC(C(=O)O)c4cc(O)cc(O)c4-c4cc3ccc4O)C(OC3CC(C)(N)C(O)C(C)O3)c3ccc(c(Cl)c3)Oc3cc2cc(c3OC2OC(CO)C(O)C(O)C2OC2CC(C)(NCc3ccc(Oc4ccc(OC)cc4)cc3)C(O)C(C)O2)Oc2ccc(cc2Cl)C1O (centres unmarked) [Compound 98, 4-[4-methoxyphenoxy]benzyl]",MIC,[1],1 µg/mL
same,MIC,[2],≤ 0.06 µg/mL
"CN[C@H](CC(C)C)C(=O)N[C@H]1C(=O)N[C@@H](CC(N)=O)C(=O)N[C@H]2C(=O)N[C@H]3C(=O)N[C@H](C(=O)N[C@H](C(=O)O)c4cc(O)cc(O)c4-c4cc3ccc4O)[C@H](O[C@H]3C[C@](C)(N)[C@@H](O)[C@H](C)O3)c3ccc(c(Cl)c3)Oc3cc2cc(c3O[C@@H]2O[C@H](CO)[C@@H](O)[C@H](O)[C@H]2O[C@H]2C[C@](C)(NCc3ccc(-c4cccc(F)c4)cc3)[C@@H](O)[C@H](C)O2)Oc2ccc(cc2Cl)[C@H]1O [Compound 92, 4-[3-fluorophenyl]benzyl]",MIC,[1],2 µg/mL
"CNC(CC(C)C)C(=O)NC1C(=O)NC(CC(N)=O)C(=O)NC2C(=O)NC3C(=O)NC(C(=O)NC(C(=O)O)c4cc(O)cc(O)c4-c4cc3ccc4O)C(OC3CC(C)(N)C(O)C(C)O3)c3ccc(c(Cl)c3)Oc3cc2cc(c3OC2OC(CO)C(O)C(O)C2OC2CC(C)(NCC3CCC4CCCC43)C(O)C(C)O2)Oc2ccc(cc2Cl)C1O (stereo not drawn) [Compound 190, cis-bicyclo[3.3.0]octane-2-methyl]",MIC,[1],8 µg/mL
same,MIC,[2],≤ 0.06 µg/mL
"CNC(CC(C)C)C(=O)NC1C(=O)NC(CC(N)=O)C(=O)NC2C(=O)NC3C(=O)NC(C(=O)NC(C(=O)O)c4cc(O)cc(O)c4-c4cc3ccc4O)C(OC3CC(C)(N)C(O)C(C)O3)c3ccc(c(Cl)c3)Oc3cc2cc(c3OC2OC(CO)C(O)C(O)C2OC2CC(C)(NCc3ccc(OCCCc4ccccc4)cc3)C(O)C(C)O2)Oc2ccc(cc2Cl)C1O (centres unmarked) [Compound 223, 4-[3-phenylpropyloxy]benzyl]",MIC,[1],1 µg/mL
same,MIC,[2],≤ 0.06 µg/mL
"CNC(CC(C)C)C(=O)NC1C(=O)NC(CC(N)=O)C(=O)NC2C(=O)NC3C(=O)NC(C(=O)NC(C(=O)O)c4cc(O)cc(O)c4-c4cc3ccc4O)C(OC3CC(C)(N)C(O)C(C)O3)c3ccc(c(Cl)c3)Oc3cc2cc(c3OC2OC(CO)C(O)C(O)C2OC2CC(C)(NCc3ccc(CCc4ccccc4)cc3)C(O)C(C)O2)Oc2ccc(cc2Cl)C1O (centres unmarked) [Compound 100, 4-[(2-phenyl)ethyl]benzyl]",MIC,[1],2 µg/mL
same,MIC,[2],≤ 0.06 µg/mL
"CN[C@H](CC(C)C)C(=O)N[C@H]1C(=O)N[C@@H](CC(N)=O)C(=O)N[C@H]2C(=O)N[C@H]3C(=O)N[C@H](C(=O)N[C@H](C(=O)O)c4cc(O)cc(O)c4-c4cc3ccc4O)[C@H](O[C@H]3C[C@](C)(N)[C@@H](O)[C@H](C)O3)c3ccc(c(Cl)c3)Oc3cc2cc(c3O[C@@H]2O[C@H](CO)[C@@H](O)[C@H](O)[C@H]2O[C@H]2C[C@](C)(NCc3ccc(OCc4ccc(Cl)cc4)cc3)[C@@H](O)[C@H](C)O2)Oc2ccc(cc2Cl)[C@H]1O [Compound 93, 4-[4-chlorobenzyloxy]benzyl]",MIC,[1],1 µg/mL
same,MIC,[2],≤ 0.06 µg/mL
"CNC(CC(C)C)C(=O)NC1C(=O)NC(CC(N)=O)C(=O)NC2C(=O)NC3C(=O)NC(C(=O)NC(C(=O)O)c4cc(O)cc(O)c4-c4cc3ccc4O)C(OC3CC(C)(N)C(O)C(C)O3)c3ccc(c(Cl)c3)Oc3cc2cc(c3OC2OC(CO)C(O)C(O)C2OC2CC(C)(NCCCCC#Cc3ccccc3)C(O)C(C)O2)Oc2ccc(cc2Cl)C1O (centres unmarked) [Compound 235, 6-phenyl-5-hexynyl]",MIC,[1],1 µg/mL
same,MIC,[2],≤ 0.06 µg/mL
"CNC(CC(C)C)C(=O)NC1C(=O)NC(CC(N)=O)C(=O)NC2C(=O)NC3C(=O)NC(C(=O)NC(C(=O)O)c4cc(O)cc(O)c4-c4cc3ccc4O)C(OC3CC(C)(N)C(O)C(C)O3)c3ccc(c(Cl)c3)Oc3cc2cc(c3OC2OC(CO)C(O)C(O)C2OC2CC(C)(NCc3cc(-c4ccccc4)ccc3O)C(O)C(C)O2)Oc2ccc(cc2Cl)C1O (centres unmarked) [Compound 85, 2-hydroxy-5-phenylbenzyl]",MIC,[1],2 µg/mL
same,MIC,[2],≤ 0.06 µg/mL
"CCOc1cc(CNC2(C)CC(OC3C(Oc4c5cc6cc4Oc4ccc(cc4Cl)C(OC4CC(C)(N)C(O)C(C)O4)C4NC(=O)C(NC(=O)C6NC(=O)C(CC(N)=O)NC(=O)C(NC(=O)C(CC(C)C)NC)C(O)c6ccc(c(Cl)c6)O5)c5ccc(O)c(c5)-c5c(O)cc(O)cc5C(C(=O)O)NC4=O)OC(CO)C(O)C3O)OC(C)C2O)ccc1OCC1CCCCC1 (centres unmarked) [Compound 105, 4-[cyclohexylmethoxy]-3-ethoxybenzyl]",MIC,[1],1 µg/mL
"CNC(CC(C)C)C(=O)NC1C(=O)NC(CC(N)=O)C(=O)NC2C(=O)NC3C(=O)NC(C(=O)NC(C(=O)O)c4cc(O)cc(O)c4-c4cc3ccc4O)C(OC3CC(C)(N)C(O)C(C)O3)c3ccc(c(Cl)c3)Oc3cc2cc(c3OC2OC(CO)C(O)C(O)C2OC2CC(C)(NCc3ccc([N+](=O)[O-])cc3)C(O)C(C)O2)Oc2ccc(cc2Cl)C1O (centres unmarked) [Compound 78, 4-nitrobenzyl]",MIC,[2],≤ 0.06 µg/mL
"CNC(CC(C)C)C(=O)NC1C(=O)NC(CC(N)=O)C(=O)NC2C(=O)NC3C(=O)NC(C(=O)NC(C(=O)O)c4cc(O)cc(O)c4-c4cc3ccc4O)C(OC3CC(C)(N)C(O)C(C)O3)c3ccc(c(Cl)c3)Oc3cc2cc(c3OC2OC(CO)C(O)C(O)C2OC2CC(C)(NCc3ccc(-c4ccc(O)cc4)cc3)C(O)C(C)O2)Oc2ccc(cc2Cl)C1O (centres unmarked) [Compound 20, 4-[4-hydroxyphenyl]benzyl]",MIC,[2],≤ 0.06 µg/mL
CNC(CC(C)C)C(=O)NC1C(=O)NC(CC(N)=O)C(=O)NC2C(=O)NC3C(=O)NC(C(=O)NC(C(=O)O)c4cc(O)cc(O)c4-c4cc3ccc4O)C(OC3CC(C)(N)C(O)C(C)O3)c3ccc(c(Cl)c3)Oc3cc2cc(c3OC2OC(CO)C(O)C(O)C2OC2CC(C)(NCc3c(C)c(C)c(C)c(C)c3C)C(O)C(C)O2)Oc2ccc(cc2Cl)C1O (centres unmarked) [Compound 73],MIC,[1],2 µg/mL
"CNC(CC(C)C)C(=O)NC1C(=O)NC(CC(N)=O)C(=O)NC2C(=O)NC3C(=O)NC(C(=O)NC(C(=O)O)c4cc(O)cc(O)c4-c4cc3ccc4O)C(OC3CC(C)(N)C(O)C(C)O3)c3ccc(c(Cl)c3)Oc3cc2cc(c3OC2OC(CO)C(O)C(O)C2OC2CC(C)(NCc3ccc(-c4ccc(C)cc4)c(C)c3)C(O)C(C)O2)Oc2ccc(cc2Cl)C1O (centres unmarked) [Compound 225, 4-[4-methylphenyl]-3-methylbenzyl]",MIC,[1],4 µg/mL
"CNC(CC(C)C)C(=O)NC1C(=O)NC(CC(N)=O)C(=O)NC2C(=O)NC3C(=O)NC(C(=O)NC(C(=O)O)c4cc(O)cc(O)c4-c4cc3ccc4O)C(OC3CC(C)(N)C(O)C(C)O3)c3ccc(c(Cl)c3)Oc3cc2cc(c3OC2OC(CO)C(O)C(O)C2OC2CC(C)(NCc3ccc(N4CCOCC4)cc3)C(O)C(C)O2)Oc2ccc(cc2Cl)C1O (centres unmarked) [Compound 147, 4-morpholinobenzyl]",MIC,[2],≤ 0.06 µg/mL
"CNC(CC(C)C)C(=O)NC1C(=O)NC(CC(N)=O)C(=O)NC2C(=O)NC3C(=O)NC(C(=O)NC(C(=O)O)c4cc(O)cc(O)c4-c4cc3ccc4O)C(OC3CC(C)(N)C(O)C(C)O3)c3ccc(c(Cl)c3)Oc3cc2cc(c3OC2OC(CO)C(O)C(O)C2OC2CC(C)(NCc3ccc(N4CCC(C)CC4)cc3)C(O)C(C)O2)Oc2ccc(cc2Cl)C1O (centres unmarked) [Compound 129, 4-[4-methyl-1-piperidino]benzyl]",MIC,[2],≤ 0.06 µg/mL
"CNC(CC(C)C)C(=O)NC1C(=O)NC(CC(N)=O)C(=O)NC2C(=O)NC3C(=O)NC(C(=O)NC(C(=O)O)c4cc(O)cc(O)c4-c4cc3ccc4O)C(OC3CC(C)(N)C(O)C(C)O3)c3ccc(c(Cl)c3)Oc3cc2cc(c3OC2OC(CO)C(O)C(O)C2OC2CC(C)(NCc3ccc([S+]([O-])c4ccccc4)cc3)C(O)C(C)O2)Oc2ccc(cc2Cl)C1O (centres unmarked) [Compound 159, 4-[phenylsulfinyl]benzyl]",MIC,[1],8 µg/mL
"CNC(CC(C)C)C(=O)NC1C(=O)NC(CC(N)=O)C(=O)NC2C(=O)NC3C(=O)NC(C(=O)NC(C(=O)O)c4cc(O)cc(O)c4-c4cc3ccc4O)C(OC3CC(C)(N)C(O)C(C)O3)c3ccc(c(Cl)c3)Oc3cc2cc(c3OC2OC(CO)C(O)C(O)C2OC2CC(C)(NCc3ccc(OC(C)=O)c(OC)c3)C(O)C(C)O2)Oc2ccc(cc2Cl)C1O (centres unmarked) [Compound 99, 4-acetoxy-3-methoxybenzyl]",MIC,[1],32 µg/mL
"CNC(CC(C)C)C(=O)NC1C(=O)NC(CC(N)=O)C(=O)NC2C(=O)NC3C(=O)NC(C(=O)NC(C(=O)O)c4cc(O)cc(O)c4-c4cc3ccc4O)C(OC3CC(C)(N)C(O)C(C)O3)c3ccc(c(Cl)c3)Oc3cc2cc(c3OC2OC(CO)C(O)C(O)C2OC2CC(C)(NCc3ccc(OCC(O)CO)cc3)C(O)C(C)O2)Oc2ccc(cc2Cl)C1O (centres unmarked) [Compound 177, 4-[2,3-dihydroxypropoxy]benzyl]",MIC,[1],16 µg/mL
